8 molecules from PubChem BioAssay (NCI) can be followed below.

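Each compound was tested at five concentrations against cells in 96-well plates for 48 hours. Here, GI50 denotes the concentration required for 50% inhibition of growth. Definition used: TGI = concentration required for complete inhibition of growth.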 Bounds are passed on as bounds.

Test systems include OVCAR-8 ovarian; PC-3 prostate; RPMI-8226 leukemia; NCI-H460 lung; SF-295 CNS; SK-MEL-2 melanoma; HL-60(TB) leukemia; OVCAR-3 ovarian; HT29 colon; IGROV1 ovarian.
Holding throughout (assay): DTP human tumour cell line panel, 48 h

On to `CCCC(CCC)NCC(O)c1cc(-c2ccc(C(F)(F)F)cc2)nc(C(F)(F)F)c1` (centres undefined), for which the GI50 (as a rule, the concentration that inhibits growth by half) in the assay on OVCAR-8 ovarian is 1.83 µM; in the assay with PC-3 prostate, 1.75 µM; with RPMI-8226 leukemia, 2.15 µM; with NCI-H460 lung, 1.77 µM; in the assay with SF-295 CNS, 1.99 µM; in the assay on SK-MEL-2 melanoma, 2.27 µM. In addition, the GI50 was 2.11 µM in the assay with HL-60(TB) leukemia, 1.93 µM with OVCAR-3 ovarian, 1.83 µM with HT29 colon and 2.09 µM in the assay with IGROV1 ovarian. Moreover, the TGI (in general, the concentration giving total growth inhibition) in the assay on OVCAR-8 ovarian amounted to 3.68 µM; with PC-3 prostate, 3.33 µM; with RPMI-8226 leukemia, 4.87 µM; with NCI-H460 lung it was 3.4 µM; with SF-295 CNS, 3.78 µM; in the assay with SK-MEL-2 melanoma, 3.92 µM. Further, the TGI in the assay on HL-60(TB) leukemia stood at 3.97 µM; in the assay with OVCAR-3 ovarian, 3.38 µM; in the assay on HT29 colon it was 3.32 µM; with IGROV1 ovarian it was 4.09 µM.
`CN1CCc2nc(N)nc(-c3nc(N)nc4c3CN(C)CC4)c2C1`: the TGI in the assay with OVCAR-8 ovarian, in the assay with PC-3 prostate, in the assay on RPMI-8226 leukemia, with NCI-H460 lung, in the assay with SF-295 CNS and with SK-MEL-2 melanoma was > 100 µM each time. In addition, the TGI in the assay with HL-60(TB) leukemia, in the assay on OVCAR-3 ovarian, in the assay with HT29 colon and with IGROV1 ovarian was > 100 µM throughout.
Regarding `Cc1cc2ncnn2cc1Nc1ncc2c(n1)n(C1CCOCC1)c(=O)n2C`, the GI50 was 11.5 µM in the assay with OVCAR-8 ovarian; 2.73 µM with PC-3 prostate; 4.41 µM in the assay on RPMI-8226 leukemia; 4.74 µM in the assay with NCI-H460 lung; 4.98 µM in the assay on SF-295 CNS; 12.2 µM in the assay on SK-MEL-2 melanoma. The GI50 in the assay on HL-60(TB) leukemia was 23.3 µM; in the assay with OVCAR-3 ovarian, 6.22 µM; in the assay on HT29 colon, 6.64 µM; in the assay with IGROV1 ovarian it was 3.19 µM. Also, the TGI is > 100 µM in the assay on OVCAR-8 ovarian; > 100 µM in the assay with PC-3 prostate; > 100 µM in the assay on RPMI-8226 leukemia; > 100 µM with NCI-H460 lung; 48 µM with SF-295 CNS; 71.5 µM in the assay with SK-MEL-2 melanoma. Further, the TGI is > 100 µM with HL-60(TB) leukemia, 72 µM in the assay on OVCAR-3 ovarian, > 100 µM with HT29 colon and 25.5 µM in the assay with IGROV1 ovarian.
As to `Cc1ccc(NC(=O)c2cccc(C(C)(C)C#N)c2)cc1Nc1ccc2ncn(C)c(=O)c2c1`, the GI50 was 4.96 µM in the assay on OVCAR-8 ovarian; 25.9 µM in the assay with PC-3 prostate; 3.25 µM in the assay on RPMI-8226 leukemia; 2.76 µM in the assay on NCI-H460 lung; 6.99 µM with SF-295 CNS; 0.0692 µM in the assay with SK-MEL-2 melanoma. In addition, the GI50 in the assay with HL-60(TB) leukemia is 0.0547 µM; in the assay with OVCAR-3 ovarian, 13.4 µM; with HT29 colon it was 0.032 µM; in the assay with IGROV1 ovarian, 1.49 µM. In addition, the TGI in the assay with OVCAR-8 ovarian was > 100 µM; with PC-3 prostate, > 100 µM; in the assay on RPMI-8226 leukemia, > 100 µM; in the assay with NCI-H460 lung, > 100 µM; in the assay with SF-295 CNS, > 100 µM; in the assay on SK-MEL-2 melanoma, 8.69 µM. For the same molecule, the TGI in the assay with HL-60(TB) leukemia was 13.9 µM; with OVCAR-3 ovarian, > 100 µM; in the assay on HT29 colon, > 100 µM; in the assay with IGROV1 ovarian it was > 100 µM.
With `CC(C)c1c(O)c(O)c2c(c1O)C(=O)C(O)=C1C(C)(C)CCC[C@@]12C`, the TGI is 10.2 µM in the assay on OVCAR-8 ovarian; 11.8 µM in the assay on PC-3 prostate; 3.99 µM with RPMI-8226 leukemia; 10.1 µM with NCI-H460 lung; 12 µM with SF-295 CNS; 13.9 µM in the assay with SK-MEL-2 melanoma. Moreover, the TGI in the assay on HL-60(TB) leukemia stood at 4.78 µM; in the assay on OVCAR-3 ovarian it was 16.2 µM; in the assay on HT29 colon, 10.2 µM; in the assay on IGROV1 ovarian, 13.9 µM.
For `O=C(Nc1n[nH]c2cc(-c3ccccc3)ccc12)C1CC1`, the GI50 with OVCAR-8 ovarian was 14.5 µM; with PC-3 prostate, 10.5 µM; with RPMI-8226 leukemia, 9.58 µM; in the assay with NCI-H460 lung it was 7.15 µM; in the assay with SF-295 CNS, 9.07 µM; in the assay on SK-MEL-2 melanoma, > 25 µM. Moreover, the GI50 with HL-60(TB) leukemia was 6.34 µM; with OVCAR-3 ovarian it was 5.34 µM; with HT29 colon, 2.31 µM; in the assay on IGROV1 ovarian, 19.6 µM. The total growth inhibition concentration (TGI) in the assay on OVCAR-8 ovarian, with PC-3 prostate, in the assay on RPMI-8226 leukemia, in the assay on NCI-H460 lung, in the assay with SF-295 CNS and in the assay with SK-MEL-2 melanoma was > 25 µM throughout. Moreover, the TGI in the assay with HL-60(TB) leukemia is > 20.7 µM; with OVCAR-3 ovarian, 16.9 µM; in the assay with HT29 colon, > 25 µM; with IGROV1 ovarian it was > 25 µM.
In the case of `COc1ccc(C(=O)c2cc(C)c(OC)c(C)c2)c(OC)c1O`, the GI50 in the assay with OVCAR-8 ovarian was 0.0459 µM; in the assay with PC-3 prostate it was 0.0402 µM; in the assay with RPMI-8226 leukemia it was 0.0463 µM; with NCI-H460 lung it was 0.0713 µM; in the assay on SF-295 CNS, 0.0396 µM; with SK-MEL-2 melanoma, 0.211 µM. Besides, the 50% growth inhibitory concentration (GI50) with HL-60(TB) leukemia was 0.0276 µM; in the assay on OVCAR-3 ovarian, 0.0374 µM; in the assay with HT29 colon it was 3.73 µM; in the assay with IGROV1 ovarian it was 0.672 µM. For the same molecule, the TGI is > 100 µM with OVCAR-8 ovarian; > 100 µM in the assay with PC-3 prostate; > 62.6 µM in the assay on RPMI-8226 leukemia; 1.35 µM with NCI-H460 lung; > 100 µM in the assay on SF-295 CNS; > 100 µM in the assay on SK-MEL-2 melanoma. The TGI in the assay with HL-60(TB) leukemia was 0.0876 µM; in the assay on HT29 colon, > 55.6 µM; in the assay on IGROV1 ovarian it was > 100 µM.
Regarding `COc1ccc(C(=O)c2cc(C)c(OC)c(C)c2)cc1OC(=O)CCl`, the GI50 in the assay with OVCAR-8 ovarian is < 0.01 µM; in the assay on PC-3 prostate, < 0.021 µM; with RPMI-8226 leukemia, < 0.01 µM; in the assay on NCI-H460 lung it was < 0.01 µM; with SF-295 CNS, < 0.0229 µM; in the assay on SK-MEL-2 melanoma it was < 0.01 µM. Further, the GI50 was < 0.01 µM with HL-60(TB) leukemia, < 0.01 µM with OVCAR-3 ovarian, 1.06 µM with HT29 colon and 0.0352 µM with IGROV1 ovarian. Further, the TGI is > 100 µM in the assay with OVCAR-8 ovarian; > 100 µM with PC-3 prostate; 25.3 µM with RPMI-8226 leukemia; 18.5 µM in the assay on NCI-H460 lung; > 86 µM in the assay on SF-295 CNS; > 100 µM with SK-MEL-2 melanoma. The TGI with HL-60(TB) leukemia is < 0.01 µM; in the assay on OVCAR-3 ovarian, 1.08 µM; in the assay with HT29 colon, 14.8 µM; with IGROV1 ovarian it was > 100 µM.
